pIC50: −log10 of the molar value.
Assays:
Assay type in all cases: cell-based, Human
[1] = test system: KCL-22 (BCR-ABL); test: In vitro growth inhibition of KCL-22 tumor cells (MTT/CCK8); settings: Homo sapiens, KCL-22; in vitro growth inhibition (or induction of apoptosis), cells cultured 3 to 5 days, MTT (CCK8); read-out: IC50 KCL-22 (BCR-ABL)
Description: (§1) Tumor cell lines are an effective model for studying in vitro tumor growth inhibition. In the present invention, a representative tumor cell line was selected to determine the cell growth inhibition activity of the present compound. All cell lines used were from ATCC, DSMZ, and cell banks of the Chinese Academy of Sciences. Cell culture conditions and methods were in accordance with the requirements of each cell line. Cells were subcultured in vitro for no more than 3 generations each time, and as required, single-clone purification and identification of cell lines could be carried out.
(§2) The cell culture media used were RPMI1640 (Gibco), DMEM (Gibco), MEM (Gibco), L15 (Gibco), IMDM (Gibco), McCOY'S5A, and William's (Gibco). 5-20% fetal bovine serum (Gibco), 1% double antibiotic, 2 mM glutamine, or 1 mM sodium pyruvate were added. The names, species, major gene characteristics, culture media and cell sources of the cell lines used are shown in table 1, wherein “amp” refers to gene amplification. “+++” refers to gene overexpression. The main genetic characteristics of cells were obtained from the COSMIC Cell Lines Project and related research papers, respectively.
(§3) Adherent cells were digested with 0.25% trypsin-EDTA (Gibco). Suspension culture cells were collected by centrifugation (1700 rpm, 3 minutes). The supernatant was discarded and the cells were counted. According to each cell growth cycle, different concentrations of cells were prepared (5˜10×10^4 cells per ml), and inoculated to 96-well plates (Corning), with 100 μl per well, and incubated overnight at 37° C., 5% CO2. The next day, the test compound was added to the cultured cells (2 wells in parallel). The final concentration of the solvent was less than 1/1,000. The cells were further cultured for 3 to 5 days and assayed by MTT.
(§4) The compound was stored at a concentration of 10 mM at −20° C. and diluted to 2- or 10-fold series prior to use. BGJ398 and AC220 were synthesized according to the methods of WO2006420A1 and US2007232604A1, respectively.
(§5) The adherent cells were taken out from the cell culture medium, and immediately added to a freshly prepared complete medium containing 10% CCK8 (5% FBS), 100 ul per hole. The suspended cells were directly added to a CCK8 reagent until reaching a final concentration of 10% and cultured for 1 to 4 hours.
(§6) T=optical density of drug-treated cell wells−optical density of blank control wells; T0=optical density of cell wells before drug treatment−optical density of blank control wells; C=optical density of solvent control wells−optical density of blank control wells. […] The experiments were repeated 1 to 3 times and a statistical analysis of data was conducted.

[2] = test system: Karpas 299 (NPM-ALK); test: In vitro growth inhibition of Karpas 299 tumor cells (MTT/CCK8); settings: Homo sapiens, KARPAS-299; in vitro growth inhibition (or induction of apoptosis), cells cultured 3 to 5 days, MTT (CCK8); read-out: IC50 Karpas 299 (NPM-ALK)
Description: as §1, §2, §3, §4, §5, §6

[3] = test system: H1703 (PDGFRa amp); test: In vitro growth inhibition of H1703 tumor cells (MTT/CCK8); settings: Homo sapiens, NCI-H1703; in vitro growth inhibition (or induction of apoptosis), cells cultured 3 to 5 days, MTT (CCK8); read-out: IC50 H1703 (PDGFRa amp)
Description: as §1, §2, §3, §4, §5, §6

[4] = test system: H1581 (FGFR1 amp); test: In vitro growth inhibition of H1581 tumor cells (MTT/CCK8); settings: Homo sapiens, NCI-H1581; in vitro growth inhibition (or induction of apoptosis), cells cultured 3 to 5 days, MTT (CCK8); read-out: IC50 H1581 (FGFR1 amp)
Description: as §1, §2, §3, §4, §5, §6

[5] = test system: Hep3B2 (FGFR3/4+++); test: In vitro growth inhibition of Hep3B2 tumor cells (MTT/CCK8); settings: Homo sapiens, Hep3B; in vitro growth inhibition (or induction of apoptosis), cells cultured 3 to 5 days, MTT (CCK8); read-out: IC50 Hep3B2 (FGFR3/4+++)
Description: as §1, §2, §3, §4, §5, §6

[6] = test system: KATO III (FGFR2 amp); test: In vitro growth inhibition of KATO III tumor cells (MTT/CCK8); settings: Homo sapiens, KATO III; in vitro growth inhibition (or induction of apoptosis), cells cultured 3 to 5 days, MTT (CCK8); read-out: IC50 KATO III (FGFR2 amp)
Description: as §1, §2, §3, §4, §5, §6

[7] = test system: Kasumi-1 (KIT N822K); test: In vitro growth inhibition of Kasumi-1 tumor cells (MTT/CCK8); settings: Homo sapiens, Kasumi 1; in vitro growth inhibition (or induction of apoptosis), cells cultured 3 to 5 days, MTT (CCK8); read-out: IC50 Kasumi-1 (KIT N822K)
Description: as §1, §2, §3, §4, §5, §6

[8] = test system: MOLM-13 (FLT3-ITD); test: In vitro growth inhibition of MOLM-13 tumor cells (MTT/CCK8); settings: Homo sapiens, MOLM-13; in vitro growth inhibition (or induction of apoptosis), cells cultured 3 to 5 days, MTT (CCK8); read-out: IC50 MOLM-13 (FLT3-ITD)
Description: as §1, §2, §3, §4, §5, §6

Compound | pIC50 [1] | pIC50 [2] | pIC50 [3] | pIC50 [4] | pIC50 [5] | pIC50 [6] | pIC50 [7] | pIC50 [8]
COc1cc2nccc(Oc3ccc(NC(=O)Nc4cc(C(C)(C)C)on4)c(C)c3)c2cc1C(N)=O [Compound 6, 4-{4-[3-(5-tert-butyl-isoxazol-3-yl)-ureido]-3-methyl-phenoxy}-7-methoxyquinolin-6-carboxamide] | 7.75 | 6.16 | 7.81 | 7.98 | 7.34 | 8.54 | 7.58 | 7.68
COc1cc2nccc(Oc3ccc(NC(=O)Nc4cc(C(C)(C)C)on4)c(N4CCN(C)CC4)c3)c2cc1C(N)=O [Compound 10, 4-[4-[3-(5-tert-butyl-isoxazol-3-yl)-ureido]-3-(4-methyl-piperazin-1-yl)-phenoxy]-7-methoxyquinolin-6-carboxamide] | < 6.00 | < 6.00 | < 6.00 | < 6.00 | < 6.00 | < 6.00 | 7.14 | < 6.00
COc1cc2nccc(Oc3ccc(N(C)C(=O)Nc4cc(C(C)(C)C)on4)cc3)c2cc1C(N)=O [Compound 11, 4-{4-[3-(5-tert-butyl-isoxazol-3-yl)-1-methyl-ureido]-phenoxy}-7-methoxyquinolin-6-carboxamide] | 7.55 | < 6.00 | 7.69 | 6.57 | 6.17 | 7.92 | 7.05 | 8.62
COc1cc2nccc(Oc3ccc(NC(=O)N(C)c4cc(C(C)(C)C)on4)c(Cl)c3)c2cc1C(N)=O [Compound 12, 4-{4-[3-(5-tert-butyl-isoxazol-3-yl)-3-methyl-ureido]-3-chloro-phenoxy}-7-methoxyquinolin-6-carboxamide] | 6.94 | < 6.00 | 6.86 | 6.23 | 6.10 | 6.99 | 6.41 | 6.91
COCCNC(=O)c1cc2c(Oc3ccc(NC(=O)Nc4cc(C(C)(C)C)on4)c(Cl)c3)ccnc2cc1OC [Compound 17, 4-{4-[3-(5-tert-butyl-isoxazol-3-yl)-ureido]-3-chloro-phenoxy}-7-methoxyquinolin-6-carboxylic acid (2-methoxy-ethyl)-amide] | 7.64 | 6.11 | 6.78 | 7.50 | 7.07 | 8.41 | 7.15 | 8.11
COc1cc2nccc(Oc3ccc(NC(=O)Nc4cc(C(C)(C)C)on4)c(Cl)c3)c2cc1[N+](=O)[O-] [Compound 18, 1-(5-tert-butyl-isoxazol-3-yl)-3-[2-chloro-4-(7-methoxy-6-nitro-quinolin-4-yloxy)-phenyl]-urea] | 7.08 | < 6.00 | 7.17 | 6.65 | 6.20 | 8.17 | 7.23 | 6.39
COc1cc2nccc(Oc3ccc(NC(=O)Nc4cc(C(C)(C)C)on4)c(Cl)c3)c2cc1C#N [Compound 19, 1-(5-tert-butyl-isoxazol-3-yl)-3-[2-chloro-4-(6-cyano-7-methoxy-quinolin-4-yloxy)-phenyl]-urea] | 6.83 | < 6.00 | 6.77 | 6.10 | < 6.00 | 7.33 | 6.88 | 6.20
CCC(=O)Nc1cc2c(Oc3ccc(NC(=O)Nc4cc(C(C)(C)C)on4)c(Cl)c3)ccnc2cc1OC [Compound 21, N-(4-{4-[3-(5-tert-butyl-isoxazol-3-yl)-ureido]-3-chloro-phenoxy}-7-methoxyquinolin-6-yl)-propionamide] | 7.57 | 6.40 | 6.80 | 7.76 | 7.43 | 8.55 | 7.05 | 8.15
C=CC(=O)Nc1cc2c(Oc3ccc(NC(=O)Nc4cc(C(C)(C)C)on4)c(Cl)c3)ccnc2cc1OC [Compound 22, N-(4-{4-[3-(5-tert-butyl-isoxazol-3-yl)-ureido]-3-chloro-phenoxy}-7-methoxyquinolin-6-yl)-acrylamide] | 7.21 | 6.21 | 7.56 | 7.39 | 7.73 | 8.07 | 7.04 | 7.77
COc1cc2nccc(Oc3ccc(NC(=O)Nc4cc(C(C)(C)C)on4)c(Cl)c3)c2cc1NC(=O)C1CCCC1 [Compound 23, cyclopentane carboxylic acid (4-{4-[3-(5-tert-butyl-isoxazol-3-yl)-ureido]-3-chloro-phenoxy}-7-methoxyquinolin-6-yl)-amide] | 6.36 | < 6.00 | 6.38 | 6.64 | 6.67 | 7.98 | 6.26 | 7.02

Molecules with a higher pIC50 [1], results first:

pIC50 [1] | pIC50 [2] | pIC50 [3] | pIC50 [4] | pIC50 [5] | pIC50 [6] | pIC50 [7] | pIC50 [8] | Compound
8.05 | 6.14 | 7.99 | 7.98 | 7.62 | 8.67 | 7.48 | 8.25 | CNC(=O)c1cc2c(Oc3ccc(NC(=O)Nc4cc(C(C)(C)C)on4)c(Cl)c3)ccnc2cc1OC [Compound 14, 4-{4-[3-(5-tert-butyl-isoxazol-3-yl)-ureido]-3-chloro-phenoxy}-7-methoxyquinolin-6-carboxylic acid methylamide]
8.26 | 6.71 | 8.06 | 8.76 | 7.86 | 8.94 | 7.66 | 8.66 | COc1cc2nccc(Oc3ccc(NC(=O)Nc4cc(C(C)(C)C)on4)c(Cl)c3)c2cc1NC(C)=O [Compound 20]
8.39 | 6.29 | 7.89 | 8.97 | 7.62 | 8.87 | 8.27 | 8.28 | CNC(=O)c1cc2c(Oc3ccc(NC(=O)Nc4cc(C(C)(C)C)no4)c(Cl)c3)ccnc2cc1OC [Compound 15, 4-{4-[3-(3-tert-butyl-isoxazol-5-yl)-ureido]-3-chloro-phenoxy}-7-methoxyquinolin-6-carboxylic acid methylamide]
8.50 | 6.60 | 8.01 | 9.07 | 8.18 | 9.08 | 8.26 | 8.27 | COc1cc2nccc(Oc3ccc(NC(=O)Nc4cc(C(C)(C)C)no4)c(Cl)c3)c2cc1C(N)=O [Compound 13, 4-{4-[3-(3-tert-butyl-isoxazol-5-yl)-ureido]-3-chloro-phenoxy}-7-methoxyquinolin-6-carboxamide]
8.67 | < 6.00 | 7.73 | 7.18 | 6.81 | 8.01 | 7.89 | 8.37 | COc1cc(Oc2ccnc3cc(OC)c(C(N)=O)cc23)ccc1NC(=O)Nc1cc(C(C)(C)C)on1 [Compound 5, 4-{4-[3-(5-tert-butyl-isoxazol-3-yl)-ureido]-3-methoxy-phenoxy}-7-methoxyquinolin-6-carboxamide]

Source: patent US10800741B2 (ANCUREALL PHARMACEUTICAL (SHANGHAI) CO., LTD., priority 2017, dated 2020)
